Measured values published in patent publication US6280760A, “Peptide-coated implants and methods for producing same” (Merck Patent Gesellschaft mit beschraenkter Haftung, priority 1997, dated 2001).

Legend:
[1] = tested on: MC3T3 H1 osteoblasts; experiment: Adhesion of MC3T3 H1 osteoblasts to PMMA bone cement shaped articles coated with cell-selective acrylate peptides; type: cell-based, mouse; details: for cell adhesion, calculated Abs (405 nm), osteoblasts: first part experiment
Excerpt: (§1) The model used for material coating with RGD peptides of different cell selectivity to obtain implants having locally differentiated bioactive coating patterns which should stimulate the adhesion of different cell species was polymerized PMMA bone cement shaped articles. To these were covalently coupled two RGD peptides of different cell selectivity. In this case acrylate peptide 3, type iiia, having a selectivity for alphav beta3 -/alphav beta5 -integrin-bearing osteoblasts, and acrylate peptide 5, type iiia, having a selectivity for […] -positive platelets were bonded to the PMMA shaped articles as described for Example 3.
(§2) a. In the first part experiment, PMMA shaped articles were coated with the acrylate peptides 3 and 5 in concentrations in the coating solution of 100 μM, 10 μM and 1 μM in each case. These RGD peptide-coated materials were then inoculated in parallel with osteoblasts and platelets and their cell adhesion was determined.
(§3) MC3T3 H1 osteoblasts (350,000 cells/cm^2) and human platelets (50 million cells/cm^2) were in each case inoculated in parallel both onto acrylate peptide 3- and acrylate peptide 5-coated PMMA shaped articles and their cell adhesion was determined as described in Example 3.
(§4) b. In the second part experiment, PMMA shaped articles were likewise coated with the acrylate peptides 3 and 5, but only in a concentration in the coating solution of 100 μM in each case. These RGD peptide-coated materials were then inoculated in parallel with osteoblasts, platelets or an osteoblast/platelet mixture and their cell adhesion was determined. MC3T3 H1 osteoblasts (350,000 cells/cm^2), human platelets (50 million cell/cm^2) and a cell mixture (350,000 osteoblasts/cm^2 […] 50 million platelets/cm^2) were in each case inoculated in parallel both onto acrylate peptide 3- and acrylate peptide 5-coated PMMA shaped articles and their cell adhesion was determined as described in Example 3.

[2] = tested on: human platelets; experiment: Adhesion of human platelets to PMMA bone cement shaped articles coated with cell-selective acrylate peptides; type: cell-based; details: for cell adhesion, calculated Abs (405 nm), platelets: first part experiment
Excerpt: as §1, §2, §3
Human platelets were prepared following the process of Shattil and Brass (J. Biol. Chem. 262:992-1000, 1987).
as §4

[3] = tested on: MC3T3 H1 osteoblasts; experiment: Proliferation of MC3T3 H1 osteoblasts on RGD peptide-coated PMMA bone cement shaped articles (WST-1 test); type: cell-based, mouse
Excerpt: For the covalent coupling of acrylate peptide 3, type iiia, to polymerized PMMA bone cement shaped articles, a coating process which was described in Example 3 was selected.
MC3T3 H1 mouse osteoblasts were then adhered to these RGD peptide-coated bone cement shaped articles as likewise described in Example 3, but with two differences: 12,000 cells/cm^2 instead of 48,000 cells/cm^2 were inoculated and the adhesion time was two hours instead of one hour. Additionally, only three different peptide concentrations were investigated in the coating solution: 0.01 μM, 1 μM and 100 μM.
After washing off non-adherent cells, the MC3T3 H1 osteoblasts were cultured under 95% atmospheric humidity and 5% CO2 at 37° C. in serum-containing (10%) culture medium for a period of 15 days. During the course of this, the medium was changed twice per week and after 1, 2, 3, 4, 5, 10 and 15 days the cell count was determined by means of the WST-1 test by Boehringer Mannheim, Germany. In each case a typical exponential course of the cell proliferation of the cultured osteoblasts was seen here (FIG. 13). The maximally achieved cell count was directly dependent on the RGD peptide concentration in the coating solution. Thus after 15 culturing days per cm^2, about 1,000,000 cells (100 μM peptide), about 550,000 cells (1 μM peptide), about 300,000 cells (0.01 μM peptide) or about 230,000 cells were achieved (control without peptide). At the highest peptide concentration of 100 μM, an approximately 4- to 5-fold increase in the cell proliferation in comparison with uncoated samples was thus observed.

[4] = tested on: osteoblasts/platelets mixture; experiment: Adhesion of an osteoblast/platelet mixture to PMMA bone cement shaped articles coated with cell-selective acrylate peptides; type: cell-based, mouse, human; details: second part experiment; 100 μM peptide in the coating solution
Protocol: as §4

[5] = tested on: MC3T3 H1 osteoblasts; experiment: Adhesion of MC3T3 H1 osteoblasts to V4A stainless steel shaped articles coated with acrylate peptide 3; type: cell-based, mouse; details: for maximum adhesion rates: V4A stainless steel
Protocol: For testing the cell adhesion of osteoblasts to peptide-coated metal surfaces, V4A stainless steel shaped articles (7×7×1 mm^3) were provided with three different coating variants and in each case then coated in turn with RGD peptides. To do this, first the stainless steel shaped articles were incubated in an ultrasonic bath at 60° C. for 15 min for the purpose of cleaning, rinsed with demineralized water, incubated in acetone for 30 min, rinsed again with demineralized water and incubated at 60° C. for 24 hours for drying.
The stainless steel platelets were then coated by means of three variants:
The Kevloc® primer solution was thinly applied and incubated at room temperature for 3 min. Then the Kevloc® bond solution was likewise thinly applied and activated in a kiln at 180° C. for 20 min.
Since this coating variant directly makes available free acrylate radicals on the metal surface, it was then possible to directly covalently couple the acrylate peptide 3, types iiia, as was described in Example 3 for polymerized PMMA-bone cement.
The Siliseal® solution was thinly applied and dried at room temperature for 5 min. Then the Sililink solution was likewise thinly applied and activated in the kiln at 320° C. for 3 min.
To make available acrylate radicals on the coated metal surfaces, the pretreated stainless steel shaped articles were immersed in demineralized water heated to 75° C., adjusted to pH about 8.00 using NaOH. A 1% 3-methacryloxypropyltrimethoxysilane solution (Huls AG, Germany) was then metered in with strirring over a period of one hour until a pH of about 6.50 was achieved. The mixture was then stirred at 75° C. for one hour; the pH at this time was about 6.35.
The bonding of acrylate peptide 3, type iiia, was carried out as described in Example 3 for polymerized PMMA bone cement.
For this, the stainless steel shaped articles were immersed in demineralized water heated to 75° C., adjusted to pH about 8.00 using NaOH, and an AlCl3 solution was metered in with stirring over a period of two hours. Then a 5% sodium silicate solution was likewise metered in with stirring over two hours. In the following step, a 1% 3-methacryloxypropyltrimethoxysilane solution (Huls AG, Germany) was metered in with stirring in the course of one hour. The mixture was then stirred at 75° C. for one hour; the pH was at this time about 6.40.
After the stainless steel shaped articles had been coated with acrylate peptide 3, type iiia, by means of three different processes, the adhesion of osteoblasts of the line MC3T3 H1 was investigated. To do this, a procedure as described in Example 3 was used.

[6] = 1 μM peptide in the coating solution
[7] = 10 μM peptide in the coating solution
[8] = 100 μM peptide in the coating solution
[9] = second part experiment, 100 μM peptide in the coating solution

cyclo(RGDf[acrylic-ahx-tEG-K]) [acrylate peptide 3]
cell adhesion, calculated Abs (405 nm), osteoblasts [1, 6]: about 1.8 Abs
cell adhesion, calculated Abs (405 nm), osteoblasts [1, 7]: about 2.0 Abs
cell adhesion, calculated Abs (405 nm), osteoblasts [1, 8]: about 6.0 Abs
cell adhesion, Abs, osteoblasts alone [1, 9]: about 6.0 Abs
cell adhesion, calculated Abs (405 nm), platelets [2, 6]: about 0.2 Abs
cell adhesion, calculated Abs (405 nm), platelets [2, 7]: about 1.5 Abs
cell adhesion, calculated Abs (405 nm), platelets [2, 8]: about 3.0 Abs
cell adhesion, Abs, platelets alone [2, 9]: about 3.0 Abs
cell count after 15 culturing days per cm^2 ([3]; 0.01 μM peptide in the coating solution): about 300,000 cells
cell count after 15 culturing days per cm^2 [3, 6]: about 550,000 cells
cell count after 15 culturing days per cm^2 [3, 8]: about 1,000,000 cells
cell adhesion, Abs, osteoblasts/platelets inoculated as a mixture [4]: about 6.5 Abs
maximum adhesion rates ([5]; Kevloc process): about 80%
maximum adhesion rates ([5]; Silicoater process): about 80%
maximum adhesion rates ([5]; pigment coating): about 60%
EC50 ([5]; all three coating variants, read-out: half-maximal cell bindings, RGD peptide concentration in the coating solution): 1 to 100 nM
